Measurements reported in patent publication US7973069B2 (PTC Therapeutics, Inc., priority 2004, dated 2011).
Several values for one entry are separate records, joined by “and”; a condition that tells them apart may be missing. Identical values can stand only once.

test system: HCV replicon; type: cell-based

First: CCn1c(-c2ccc(NC(=O)OCc3ccccc3)cc2)c(C#N)c2ccc(OCCF)cc21 [Compound 948]
Second: CCCNC(=O)Nc1ccc(-c2c(C#N)c3ccc(OC(F)F)cc3n2CC)cc1 [Compound 1136]
The IC50 of the first is lower: less than 0.5 µM for the first, 0.5 to 2 µM for the second. The first is the more potent here.

CCCS(=O)(=O)Nc1ccc(-c2c(C#N)c3ccc(OC)cc3n2C2CC2)cc1 [Compound 1235] and CCn1c(-c2ccc(N3CCOC3=O)cc2)c(C#N)c2ccc(OCCCCl)cc21 [Compound 1052] fall in the same range of IC50: 0.5 to 2 µM for the first, 0.5 to 2 µM for the second.

Compared with CCCCn1c(-c2ccc(NC(=O)NCCc3ccccc3)cc2)c(C#N)c2ccc(OCC)cc21 [Compound 1019], CCOC(=O)Nc1ccc(-c2c(C#N)c3ccc(OC)cc3n2CC)cc1F [Compound 876] is higher in IC50: less than 0.5 µM for the first, 0.5 to 2 µM for the second. The first is the more potent here.

CCOc1ccc2c(C#N)c(-c3ccc(NC(=O)NC4CCCC4)cc3)n(C3CCC3)c2c1 [Compound 1027] and CCOc1ccc2c(C#N)c(-c3ccc(NC(=O)OC4CCCC4)cc3)n(C3CCC3)c2c1 [Compound 1109] cannot be ordered by IC50: less than 0.5 µM for the first, less than 0.5 µM for the second.

N#Cc1c(-c2ccc(NC(=O)NC3CCCC3)cc2)n(C2CCC2)c2cc3c(cc12)OCO3 [Compound 1305] and CC(C)NC(=O)Nc1ccc(-c2c(C#N)c3ccc(-c4ccccn4)cc3n2C2CCC2)cc1 [Compound 2440] cannot be ordered by IC50: less than 0.5 µM for the first, less than 0.5 µM for the second.

CCn1c(-c2ccc(N3CCCS3(=O)=O)cc2)c(C#N)c2ccc(N)cc21 [Compound 1050] and CCCCNC(=O)Nc1ccc(-c2c(C#N)c3ccc(OCC)cc3n2CC)cc1 [Compound 951] fall in the same range of IC50: 0.5 to 2 µM for the first, 0.5 to 2 µM for the second.

First: CCCOc1ccc2c(C#N)c(-c3ccc(NC(=O)OCC)cc3)n(C(C)C)c2c1 [Compound 1202]
Second: CCCOC(=O)Nc1ccc(-c2c(C#N)c3cc(OCc4ccccc4)ccc3n2CC)cc1 [Compound 926]
The IC50 of the first is lower: less than 0.5 µM for the first, 0.5 to 2 µM for the second. The first is the more potent here.

First: CCCS(=O)(=O)Nc1ccc(-c2c(C#N)c3ccc(OC(F)F)cc3n2C2CCCC2)cc1 [Compound 1188]
Second: CCCS(=O)(=O)Nc1ccc(-c2c(C#N)c3ccc(OC(F)(F)F)cc3n2CC)cc1 [Compound 882]
The IC50 of the first is higher: 0.5 to 2 µM for the first, less than 0.5 µM for the second. The second is the more potent here.

Compared with CCCCNC(=O)Nc1ccc(-c2c(C#N)c3ccc(OCC)cc3n2CCC)cc1 [Compound 1097], CCCn1c(-c2ccc(NS(C)(=O)=O)cc2)c(C#N)c2cc(OC)ccc21 [Compound 995] is higher in IC50: less than 0.5 µM for the first, 0.5 to 2 µM for the second. The first is the more potent here.

First: CCN(C)CCOc1ccc2c(C#N)c(-c3ccc(NC(=O)OC(C)C)cc3)n(C3CCC3)c2c1 [Compound 1270]
Second: CCn1c(-c2ccc(NC(=O)NCCCl)cc2)c(C#N)c2ccc(OCCCN3CCOCC3)cc21 [Compound 1126]
The IC50 of the first is lower: less than 0.5 µM for the first, 0.5 to 2 µM for the second.

First: CCOc1ccc2c(C#N)c(-c3ccc(NP(=O)(OC)OC)cc3)n(CC)c2c1 [Compound 942]
Second: CCOC(=O)Nc1ccc(-c2c(C#N)c3ccc(OCC)cc3n2C2CCCC2)cc1 [Compound 1127]
The IC50 of the first is higher: 0.5 to 2 µM for the first, less than 0.5 µM for the second.

CC(C)NC(=O)Nc1ccc(-c2c(C#N)c3ccc(OCCCN4CCOCC4)cc3n2C2CCC2)cc1 [Compound 1306] and CCn1c(-c2ccc(NC(=O)OC(C)C)c(F)c2)c(C#N)c2ccc(OC)cc21 [Compound 878] fall in the same range of IC50: 0.5 to 2 µM for the first, 0.5 to 2 µM for the second.

CCOc1ccc2c(c1)c(C#N)c(-c1ccc(NC(=O)OCC3CC3)cc1)n2C1CCC1 [Compound 1291] and CCOc1ccc2c(C#N)c(-c3ccc(NC(=O)NC(C)C)cc3)n(C(C)C)c2c1 [Compound 1100] cannot be ordered by IC50: less than 0.5 µM for the first, less than 0.5 µM for the second.

CCOc1ccc2c(C#N)c(-c3ccc(NC(=O)NC(C)C)cc3)n(C3CCC3)c2c1 [Compound 1080] and CCOc1ccc2c(C#N)c(-c3ccc(NC(=O)OCC4CC4)cc3)n(C3CCC3)c2c1 [Compound 1146] cannot be ordered by IC50: less than 0.5 µM for the first, less than 0.5 µM for the second.

CCOc1ccc2c(C#N)c(-c3ccc(NC(=O)OCCOC)cc3)n(C3CCC3)c2c1 [Compound 975] and CCCn1c(-c2ccc(NC(=O)NC(C)CC)cc2)c(C#N)c2ccc(OC)cc21 (stereo not shown) [Compound 1119] fall in the same range of IC50: 0.5 to 2 µM for the first, 0.5 to 2 µM for the second.

First: CCNC(=O)Nc1ccc(-c2c(C#N)c3ccc(OCC)cc3n2CC(C)C)cc1 [Compound 1060]
Second: N#Cc1c(-c2ccc(NS(=O)(=O)C3CC3)cc2)n(C2CCCC2)c2cc(OC(F)F)ccc12 [Compound 1189]
The IC50 of the first is higher: 0.5 to 2 µM for the first, less than 0.5 µM for the second.

CCOc1ccc2c(c1)c(C#N)c(-c1ccc(NC(=O)OC(C)COC)cc1)n2C1CCC1 (stereo not shown) [Compound 1299] and CCCOc1ccc2c(C#N)c(-c3ccc(NC(=O)NC4CCC4)cc3)n(C(C)C)c2c1 [Compound 1326] fall in the same range of IC50: 0.5 to 2 µM for the first, 0.5 to 2 µM for the second.

CCn1c(-c2ccc(NS(=O)(=O)C(C)C)cc2)c(C#N)c2ccc(OCCF)cc21 [Compound 912] and CCCCOC(=O)Nc1ccc(-c2c(C#N)c3ccc(OC)cc3n2C2CCC2)cc1 [Compound 1075] fall in the same range of IC50: 0.5 to 2 µM for the first, 0.5 to 2 µM for the second.

CCNC(=O)Nc1ccc(-c2c(C#N)c3ccc(OC)cc3n2CC)cc1C [Compound 966] and CCn1c(-c2ccc(NC(=O)NC(C)C)cc2)c(C#N)c2cc3c(cc21)OCO3 [Compound 1039] fall in the same range of IC50: 0.5 to 2 µM for the first, 0.5 to 2 µM for the second.

First: [4-(3-cyano-1-cyclobutyl-6-cyclopropyl-1H-indol-2-yl)-phenyl]-carbamic acid tert-butyl ester [Compound 2513]
Second: C[C@@H](OC(=O)Nc1ccc(-c2c(C#N)c3ccc(Oc4ncccn4)cc3n2C2CC2)cc1F)C1CC1 [Compound 2413]
The IC50 of the first is higher: 0.5 to 2 µM for the first, less than 0.5 µM for the second.

CCNC(=O)Nc1ccc(-c2c(C#N)c3ccc(OC(F)(F)F)cc3n2CC)cc1 [Compound 892] and CCCn1c(-c2ccc(NS(=O)(=O)C3CC3)cc2)c(C#N)c2cc(OC)ccc21 [Compound 998] fall in the same range of IC50: 0.5 to 2 µM for the first, 0.5 to 2 µM for the second.

CCOc1ccc2c(c1)c(C#N)c(-c1ccc(NC(=O)NC3CCCC3)cc1)n2C1CCC1 [Compound 1226] and CCCOc1ccc2c(C#N)c(-c3ccc(NC(=O)OCC(C)C)cc3)n(C(C)C)c2c1 [Compound 1206] cannot be ordered by IC50: less than 0.5 µM for the first, less than 0.5 µM for the second.

Compared with CCOc1ccc2c(C#N)c(-c3ccc(NC(=O)NC4CCCC4)cc3)n(C3CCCC3)c2c1 [Compound 1214], CCn1c(-c2ccc(N)c(C)c2)c(C#N)c2ccc(OC)cc21 [Compound 927] is higher in IC50: less than 0.5 µM for the first, 0.5 to 2 µM for the second.

CCn1c(-c2ccc(NP(=O)(OC)OC)cc2)c(C#N)c2ccc(OC)cc21 [Compound 944] and CCn1c(-c2ccc(NS(C)(=O)=O)c(C)c2)c(C#N)c2ccc(OC)cc21 [Compound 959] fall in the same range of IC50: 0.5 to 2 µM for the first, 0.5 to 2 µM for the second.

First: CCOc1ccc2c(c1)c(C#N)c(-c1ccc(NC(=O)OCC(C)(C)C)cc1)n2C1CCC1 [Compound 1200]
Second: CCn1c(-c2ccc(NS(=O)(=O)CC)cc2)c(C#N)c2ccc(OCCCN3CCOCC3)cc21 [Compound 1115]
The IC50 of the first is lower: less than 0.5 µM for the first, 0.5 to 2 µM for the second. The first is the more potent here.

N#Cc1c(-c2ccc(N3CCCS3(=O)=O)cc2)n(CCF)c2cc(OC(F)(F)F)ccc12 [Compound 905] and CC(C)OC(=O)Nc1ccc(-c2c(C#N)c3ccc(OCCF)cc3n2C2CCC2)cc1 [Compound 1174] cannot be ordered by IC50: less than 0.5 µM for the first, less than 0.5 µM for the second.

CC(C)OC(=O)Nc1ccc(-c2c(C#N)c3ccc(OCCN4CCSCC4)cc3n2C2CCC2)cc1 [Compound 1273] and CCn1c(-c2ccc(N3CCOC3=O)cc2)c(C#N)c2ccc(OCCCn3cncn3)cc21 [Compound 1084] fall in the same range of IC50: 0.5 to 2 µM for the first, 0.5 to 2 µM for the second.

First: CCn1c(-c2ccc(NS(=O)(=O)C3CC3)c(F)c2)c(C#N)c2ccc(OC)cc21 [Compound 873]
Second: CCCn1c(-c2ccc(N3CCCS3(=O)=O)cc2)c(C#N)c2ccc(OC(F)(F)F)cc21 [Compound 904]
The IC50 of the first is higher: greater than 2 µM for the first, 0.5 to 2 µM for the second.

COc1ccc2c(C#N)c(-c3ccc(NC(=O)NC(C)C)cc3)n(CC3CC3)c2c1 [Compound 987] and CCCn1c(-c2cccc(NS(=O)(=O)CC)c2)c(C#N)c2cc(OCc3ccccc3)ccc21 [Compound 919] fall in the same range of IC50: 0.5 to 2 µM for the first, 0.5 to 2 µM for the second.

CCn1c(-c2ccc(NC(=O)NC(C)C)c(F)c2)c(C#N)c2ccc(OC)cc21 [Compound 911] and CCn1c(-c2ccc(N3CCCS3(=O)=O)cc2)c(C#N)c2ccc(Oc3cnccn3)cc21 [Compound 1053] fall in the same range of IC50: 0.5 to 2 µM for the first, 0.5 to 2 µM for the second.

CCn1c(-c2ccc(NC(=O)C3CC3)cc2)c(C#N)c2ccc(OCCN3CCCC3)cc21 [Compound 1054] and CC(C)NC(=O)Nc1ccc(-c2c(C#N)c3cc4c(cc3n2C2CCC2)OCO4)cc1 [Compound 1303] fall in the same range of IC50: 0.5 to 2 µM for the first, 0.5 to 2 µM for the second.

COc1ccc2c(c1)c(C#N)c(-c1ccc(NC(=O)NC3CCCC3)cc1)n2C1CCC1 [Compound 1165] and CCNC(=O)Nc1ccc(-c2c(C#N)c3ccc(OCC)cc3n2C(C)C)cc1 [Compound 1098] fall in the same range of IC50: 0.5 to 2 µM for the first, 0.5 to 2 µM for the second.

COCCN(C)CCOc1ccc2c(C#N)c(-c3ccc(NC(=O)OC(C)C)cc3)n(C3CCC3)c2c1 [Compound 1274] and CC(C)OC(=O)Nc1ccc(-c2c(C#N)c3ccc(OCCCN4CCN(C)CC4)cc3n2C2CCC2)cc1 [Compound 1261] cannot be ordered by IC50: less than 0.5 µM for the first, less than 0.5 µM for the second.

First: CCCS(=O)(=O)Nc1ccc(-c2c(C#N)c3cc(OC)ccc3n2C2CCC2)cc1 [Compound 1181]
Second: CCOc1ccc2c(C#N)c(-c3ccc(NP(=O)(OC)OC)cc3)n(C3CCC3)c2c1 [Compound 937]
The IC50 of the first is higher: 0.5 to 2 µM for the first, less than 0.5 µM for the second.

CCCn1c(-c2ccc(NS(=O)(=O)C3CC3)cc2)c(C#N)c2ccc(OCc3ccccc3)cc21 [Compound 924] and CCNC(=O)Nc1ccc(-c2c(C#N)c3ccc(OCCF)cc3n2CC)cc1 [Compound 954] fall in the same range of IC50: 0.5 to 2 µM for the first, 0.5 to 2 µM for the second.

First: C=CCNC(=O)Nc1ccc(-c2c(C#N)c3cc(OC)ccc3n2CC)cc1 [Compound 1013]
Second: CCn1c(-c2ccc(NC(=O)OCC(C)C)cc2)c(C#N)c2ccc(OCCF)cc21 [Compound 947]
The IC50 of the first is higher: 0.5 to 2 µM for the first, less than 0.5 µM for the second. The second is the more potent here.

In the case of COc1ccc2c(c1)c(C#N)c(-c1ccc(NS(=O)(=O)C3CC3)cc1)n2C1CCC1 [Compound 1182], the IC50 is reported as < 0.5 µM and > 2 µM.
With CCCCNC(=O)Nc1ccc(-c2c(C#N)c3cc(OC)ccc3n2C2CCC2)cc1 [Compound 1164] the IC50 was < 0.5 µM and > 2 µM.
With CCCOC(=O)Nc1ccc(-c2c(C#N)c3cc(OC)ccc3n2C2CCC2)cc1 [Compound 1177] the IC50 was < 0.5 µM and 0.5 to 2 µM.
In the case of CCn1c(-c2ccc(NS(=O)(=O)CC)cc2)c(C#N)c2ccc(C(=O)OC)cc21 [Compound 968], the IC50 is reported as < 0.5 µM and 0.5 to 2 µM.
CCCn1c(-c2ccc(NS(=O)(=O)CC)cc2)c(C#N)c2cc(OC)ccc21 [Compound 996] was tested, and the IC50 was < 0.5 µM and 0.5 to 2 µM.
For CCN(c1ccc(-c2c(C#N)c3ccc(C(F)(F)F)cc3n2CC)cc1)S(=O)(=O)CC [Compound 1006], the IC50 was < 0.5 µM and 0.5 to 2 µM.
With CC(C)COC(=O)Nc1ccc(-c2c(C#N)c3ccc(OC(F)F)cc3n2CC2CC2)cc1 [Compound 1071] the IC50 was 0.5 to 2 µM and > 2 µM.
